From US11419806B2, “Prebiotic oral care methods using a saccharide” (Colgate-Palmolive Company, priority 2013, dated 2022)

Columns and labels:
Format in all cases: cell-based
Prevotella intermedia = assay: Twenty-four hour optical density growth in BHI; conditions: P intermedia
Protocol: (§1) The extent of growth of the tested bacteria in response to selected saccharides (myo-inositol, D-lactitol, D-turanose and N-acetyl-D-mannosamine) was investigated by setting up growth curves in a nutritionally rich medium (brain heart infusion broth (BHI), Oxoid), over 24 hours. Late exponential growth phase liquid cultures were prepared by transferring the respective bacterium from blood agar plates to BHI and overnight incubation at 37° C. in an anaerobic atmosphere for A. viscosus, V. parvula, F. nucleatum, P. gingivalis, P. intermedia, T. forsythia, A. naeslundii, and C. sputigena, and in a 5% CO2 environment for S. salivarius, S. sanguinis, S. mitis, A. actinomycetemcomitans, S. mutans, S. sobrinus and S. gordonii. Overnight cultures were transferred to BHI and adjusted to a concentration of 1×10^7 CFU/ml (colony forming units per ml) by measuring the optical density at 600 nm (OD600) (BioRad SmartSpec 3000). For each strain, 200 μl of the bacterial suspension was added to a 96-well plate containing 20 μl of the respective saccharides. Final concentrations of the saccharides were set to 5, 10, 20 and 25 μmol/ml. […] Plates were incubated as previously described.
(§2) For each combination of bacterium/saccharide, and for each of their respective controls (i.e. the particular bacterium in the nutritionally rich medium with no saccharide), the optical density was measured at 630 nm (OD630) at 0 h and 24 h (Thermo Scientific Multiskan Ascent). Additionally, the OD630 for combinations of bacterium/saccharides grown in a 5% CO2 environment were also measured every hour between 0 h and 9 h.
(§3) The experiment was carried out on three different days (thus providing 3 biological replicas) and on each day the experiment was carried out in quadruple (thus providing 4 technical replicas) for each combination of bacterium with saccharide and for each control. For each day and for each combination, the average (mean) of the values obtained (as detailed above) for the four technical replicas was calculated to provide a single value for each combination on each day. The values shown in Tables 5a,b to 6a,b, below, are the average (mean) of the three single values obtained for each combination of bacterium with saccharide.

Porphyromonas gingivalis = assay: Twenty-four hour optical density growth in BHI; conditions: P gingivalis
Protocol: as §1, §2, §3

P. intermedia = assay: Twenty-four hour biofilm growth (crystal violet)
Protocol: (§4) The increase in biofilm formation of the tested bacteria in response to selected saccharides (D-turanose, D-lactitol, myo-inositol, and N-acetyl-D-mannosamine) was investigated by setting up biofilm growth assays in a nutritionally rich medium (brain heart infusion broth (BHI), Oxoid), over 24 hours. Late exponential growth phase liquid cultures were prepared by transferring the respective bacterium from blood agar plates to BHI and overnight incubation at 37° C. in an anaerobic atmosphere for A. viscosus, V. parvula, P. gingivalis, P. intermedia, T. forsythia, A. naeslundii, and C. sputigena, and in a 5% CO2 environment for S. salivarius, S. sanguinis, S. mitis, A. actinomycetemcomitans, S. mutans, and S. gordonii. Overnight cultures were transferred to BHI and adjusted to a concentration of 1×10^7 CFU/ml by measuring the optical density at 600 nm (OD600) (BioRad SmartSpec 3000). For each strain, 200 μl of the bacterial suspension was added to a 96-well plate containing 20 μl of the respective saccharides. Final concentrations of the saccharides were set to 5, 10, 20 and 25 μmol/ml. […] Additionally, for each bacterium tested, a background control, to correct for background staining, was added. This background control contained the bacterium tested and 0.03 weight % chlorhexidine, as an antiseptic. Plates were incubated as previously described. After 24 hrs the supernatant was removed from the wells of the plates. The wells were washed twice with 1×100 μL PBS (phosphate buffered saline), fixed for 20 minutes with 96% vol. ethanol (96% vol. solution in water) and the biofilm retained at the bottom of the wells was stained with 1 weight % crystal violet (1 weight % solution in water). The bound dye was dissolved with 5% vol. acetic acid (5% vol. solution in water). Quantification of the stained biofilm was performed by measuring the absorbance at 630 nm using a Multiskan Ascent microplate reader (Thermo Scientific).
as §3, with “and” for “and on”, “7a, 7b, 8a, 8b,” for “5a,b to 6a,b,”

S. gordonii = assay: Twenty-four hour biofilm growth (crystal violet)
Protocol: as §4
as §3, with “and” for “and on”, “7a, 7b, 8a, 8b,” for “5a,b to 6a,b,”

A. viscosus = assay: Twenty-four hour biofilm growth (crystal violet)
Protocol: as §4
as §3, with “and” for “and on”, “7a, 7b, 8a, 8b,” for “5a,b to 6a,b,”

A. actinomycetemcomitans = assay: Twenty-four hour biofilm growth (crystal violet)
Protocol: as §4
as §3, with “and” for “and on”, “7a, 7b, 8a, 8b,” for “5a,b to 6a,b,”

S. mutans = assay: Twenty-four hour biofilm growth (crystal violet); conditions: S mutans
Protocol: as §4
as §3, with “and” for “and on”, “7a, 7b, 8a, 8b,” for “5a,b to 6a,b,”

S. sanguinis = assay: Twenty-four hour biofilm growth (crystal violet)
Protocol: as §4
as §3, with “and” for “and on”, “7a, 7b, 8a, 8b,” for “5a,b to 6a,b,”

T. forsythia = assay: Twenty-four hour biofilm growth (crystal violet)
Protocol: as §4
as §3, with “and” for “and on”, “7a, 7b, 8a, 8b,” for “5a,b to 6a,b,”

P. gingivalis = assay: Twenty-four hour biofilm growth (crystal violet)
Protocol: as §4
as §3, with “and” for “and on”, “7a, 7b, 8a, 8b,” for “5a,b to 6a,b,”

O[C@H]1[C@H](O)[C@@H](O)[C@H](O)[C@@H](O)[C@H]1O [Myo-Inositol, (1R,2R,3S,4S,5R,6S)-cyclohexane-1,2,3,4,5,6-hexol]
extent of growth: maximal OD630 over 24 hr divided by maximal OD of control (control = 1) (Prevotella intermedia; 5 μmol/ml): 0.9519 | extent of growth: maximal OD630 over 24 hr divided by maximal OD of control (control = 1) (Prevotella intermedia; 10 μmol/ml): 0.9564 | extent of growth: maximal OD630 over 24 hr divided by maximal OD of control (control = 1) (Prevotella intermedia; 20 μmol/ml): 0.9230 | extent of growth: maximal OD630 over 24 hr divided by maximal OD of control (control = 1) (Prevotella intermedia; 25 μmol/ml): 0.9158 | extent of growth: maximal OD630 over 24 hr divided by maximal OD of control (control = 1) (Porphyromonas gingivalis; 5 μmol/ml): 1.0200 | extent of growth: maximal OD630 over 24 hr divided by maximal OD of control (control = 1) (Porphyromonas gingivalis; 10 μmol/ml): 1.0126 | extent of growth: maximal OD630 over 24 hr divided by maximal OD of control (control = 1) (Porphyromonas gingivalis; 20 μmol/ml): 0.9758 | extent of growth: maximal OD630 over 24 hr divided by maximal OD of control (control = 1) (Porphyromonas gingivalis; 25 μmol/ml): 0.9855 | biofilm growth: OD 630 nm at 24 hrs divided by OD of control (control = 1) (P. intermedia; 5 μmol/ml): 1.1539 | biofilm growth: OD 630 nm at 24 hrs divided by OD of control (control = 1) (P. intermedia; 10 μmol/ml): 1.2210 | biofilm growth: OD 630 nm at 24 hrs divided by OD of control (control = 1) (P. intermedia; 20 μmol/ml): 1.1660 | biofilm growth: OD 630 nm at 24 hrs divided by OD of control (control = 1) (P. intermedia; 25 μmol/ml): 1.0417 | biofilm growth: OD 630 nm at 24 hrs divided by OD of control (control = 1) (S. gordonii; 5 μmol/ml): 0.6178 | biofilm growth: OD 630 nm at 24 hrs divided by OD of control (control = 1) (S. gordonii; 10 μmol/ml): 0.6384 | biofilm growth: OD 630 nm at 24 hrs divided by OD of control (control = 1) (S. gordonii; 20 μmol/ml): 0.6650 | biofilm growth: OD 630 nm at 24 hrs divided by OD of control (control = 1) (S. gordonii; 25 μmol/ml): 0.6716 | biofilm growth: OD 630 nm at 24 hrs divided by OD of control (control = 1) (A. viscosus; 5 μmol/ml): 0.8136 | biofilm growth: OD 630 nm at 24 hrs divided by OD of control (control = 1) (A. viscosus; 10 μmol/ml): 0.8735 | biofilm growth: OD 630 nm at 24 hrs divided by OD of control (control = 1) (A. viscosus; 20 μmol/ml): 0.8117 | biofilm growth: OD 630 nm at 24 hrs divided by OD of control (control = 1) (A. viscosus; 25 μmol/ml): 0.8167 | biofilm growth: OD 630 nm at 24 hrs divided by OD of control (control = 1) (A. actinomycetemcomitans; 5 μmol/ml): 0.8323 | biofilm growth: OD 630 nm at 24 hrs divided by OD of control (control = 1) (A. actinomycetemcomitans; 10 μmol/ml): 0.8378 | biofilm growth: OD 630 nm at 24 hrs divided by OD of control (control = 1) (A. actinomycetemcomitans; 20 μmol/ml): 0.9661 | biofilm growth: OD 630 nm at 24 hrs divided by OD of control (control = 1) (A. actinomycetemcomitans; 25 μmol/ml): 0.9898 | biofilm growth: OD 630 nm at 24 hrs divided by OD of control (control = 1) (S. mutans; 5 μmol/ml): 0.9177 | biofilm growth: OD 630 nm at 24 hrs divided by OD of control (control = 1) (S. mutans; 10 μmol/ml): 1.0152 | biofilm growth: OD 630 nm at 24 hrs divided by OD of control (control = 1) (S. mutans; 20 μmol/ml): 1.1995 | biofilm growth: OD 630 nm at 24 hrs divided by OD of control (control = 1) (S. mutans; 25 μmol/ml): 1.4107 | biofilm growth: OD 630 nm at 24 hrs divided by OD of control (control = 1) (S. sanguinis; 5 μmol/ml): 2.4209 | biofilm growth: OD 630 nm at 24 hrs divided by OD of control (control = 1) (S. sanguinis; 10 μmol/ml): 2.3658 | biofilm growth: OD 630 nm at 24 hrs divided by OD of control (control = 1) (S. sanguinis; 20 μmol/ml): 2.1878 | biofilm growth: OD 630 nm at 24 hrs divided by OD of control (control = 1) (S. sanguinis; 25 μmol/ml): 2.1240 | biofilm growth: OD 630 nm at 24 hrs divided by OD of control (control = 1) (T. forsythia; 5 μmol/ml): 0.6841 | biofilm growth: OD 630 nm at 24 hrs divided by OD of control (control = 1) (T. forsythia; 10 μmol/ml): 0.6396 | biofilm growth: OD 630 nm at 24 hrs divided by OD of control (control = 1) (T. forsythia; 20 μmol/ml): 0.7688 | biofilm growth: OD 630 nm at 24 hrs divided by OD of control (control = 1) (T. forsythia; 25 μmol/ml): 0.6940 | biofilm growth: OD 630 nm at 24 hrs divided by OD of control (control = 1) (P. gingivalis; 5 μmol/ml): 0.9325 | biofilm growth: OD 630 nm at 24 hrs divided by OD of control (control = 1) (P. gingivalis; 10 μmol/ml): 0.9657 | biofilm growth: OD 630 nm at 24 hrs divided by OD of control (control = 1) (P. gingivalis; 20 μmol/ml): 0.9448 | biofilm growth: OD 630 nm at 24 hrs divided by OD of control (control = 1) (P. gingivalis; 25 μmol/ml): 1.0290
